The record followed here is ChEMBL document CHEMBL1137200, “Discovery of a Subnanomolar helical D-tridecapeptide inhibitor of gamma-secretase” (J Med Chem, 2004).

The target of the first assay is Gamma-secretase. Nature of the assay: Inhibitory activity against Gamma-secretase in detergent-solubilized HeLa cell membranes with recombinant APP-based substrate.
For `CC[C@H](C)[C@H](NC(=O)[C@@H](NC(=O)[C@@H](NC(=O)C(C)(C)NC(=O)CNC(=O)[C@@H](NC(=O)C(C)(C)NC(=O)[C@H](CC(C)C)NC(=O)OC(C)(C)C)C(C)C)C(C)C)C(C)C)C(=O)NC(C)(C)C(=O)N[C@H](C(=O)N[C@H](C(=O)NC(C)(C)C(=O)N[C@H](C(=O)N[C@H](C(=O)NC(C)(C)C(=O)OC)[C@@H](C)CC)C(C)C)C(C)C)[C@@H](C)OCc1ccccc1`, the 50% inhibitory concentration (IC50) stood at 4700 nM.

Take `CC[C@H](C)[C@H](NC(=O)[C@@H](NC(=O)[C@@H](NC(=O)C(C)(C)NC(=O)CNC(=O)[C@@H](NC(=O)C(C)(C)NC(=O)[C@H](CC(C)C)NC(=O)CNC(=O)OC(C)(C)C)C(C)C)C(C)C)C(C)C)C(=O)NC(C)(C)C(=O)N[C@H](C(=O)N[C@H](C(=O)NC(C)(C)C(=O)N[C@H](C(=O)N[C@H](C(=O)NC(C)(C)C(=O)OC)[C@@H](C)CC)C(C)C)C(C)C)[C@@H](C)OCc1ccccc1`: the IC50 is 11000 nM.

On to `CC[C@@H](C)[C@@H](NC(=O)[C@H](NC(=O)[C@H](NC(=O)C(C)(C)NC(=O)CNC(=O)OC(C)(C)C)C(C)C)C(C)C)C(=O)NC(C)(C)C(=O)N[C@@H](C(=O)N[C@@H](C(=O)NC(C)(C)C(=O)N[C@@H](C(=O)N[C@@H](C(=O)NC(C)(C)C(=O)OC)[C@H](C)CC)C(C)C)C(C)C)[C@H](C)OCc1ccccc1`, for which the concentration for half-maximal inhibition (IC50) stood at 12 nM.

Regarding `CC[C@@H](C)[C@@H](NC(=O)[C@H](NC(=O)[C@H](NC(=O)C(C)(C)NC(=O)CNC(=O)[C@H](NC(=O)OC(C)(C)C)C(C)C)C(C)C)C(C)C)C(=O)NC(C)(C)C(=O)N[C@@H](C(=O)N[C@@H](C(=O)NC(C)(C)C(=O)N[C@@H](C(=O)N[C@@H](C(=O)NC(C)(C)C(=O)OC)[C@H](C)CC)C(C)C)C(C)C)[C@H](C)OCc1ccccc1`, the 50% inhibitory concentration (IC50) turned out to be 0.14 nM.

Regarding `CC[C@@H](C)[C@@H](NC(=O)[C@H](NC(=O)[C@H](NC(=O)C(C)(C)NC(=O)CNC(=O)[C@H](NC(=O)C(C)(C)NC(=O)OC(C)(C)C)C(C)C)C(C)C)C(C)C)C(=O)NC(C)(C)C(=O)N[C@@H](C(=O)N[C@@H](C(=O)NC(C)(C)C(=O)N[C@@H](C(=O)N[C@@H](C(=O)NC(C)(C)C(=O)OC)[C@H](C)CC)C(C)C)C(C)C)[C@H](C)OCc1ccccc1`, the half-inhibitory concentration (IC50) was 14 nM.

Take `CC[C@H](C)[C@H](NC(=O)[C@@H](NC(=O)[C@@H](NC(=O)C(C)(C)NC(=O)CNC(=O)[C@@H](NC(=O)OC(C)(C)C)C(C)C)C(C)C)C(C)C)C(=O)NC(C)(C)C(=O)N[C@H](C(=O)N[C@H](C(=O)NC(C)(C)C(=O)OC)C(C)C)[C@@H](C)OCc1ccccc1`: the IC50 was found to be 30000 nM.

Turning to `CC[C@H](C)[C@H](NC(=O)[C@@H](NC(=O)[C@@H](NC(=O)C(C)(C)NC(=O)CNC(=O)OC(C)(C)C)C(C)C)C(C)C)C(=O)NC(C)(C)C(=O)N[C@H](C(=O)N[C@H](C(=O)NC(C)(C)C(=O)N[C@H](C(=O)N[C@H](C(=O)NC(C)(C)C(=O)OC)[C@@H](C)CC)C(C)C)C(C)C)[C@@H](C)OCc1ccccc1`, the half-inhibitory concentration (IC50) came to 360 nM.

In the case of `CC[C@H](C)[C@H](NC(=O)[C@@H](NC(=O)[C@@H](NC(=O)C(C)(C)NC(=O)OC(C)(C)C)C(C)C)C(C)C)C(=O)NC(C)(C)C(=O)N[C@H](C(=O)N[C@H](C(=O)NC(C)(C)C(=O)N[C@H](C(=O)N[C@H](C(=O)NC(C)(C)C(=O)OC)[C@@H](C)CC)C(C)C)C(C)C)[C@@H](C)OCc1ccccc1`, the IC50 was 3100 nM.

On to `CC[C@@H](C)[C@@H](NC(=O)[C@H](NC(=O)[C@H](NC(=O)C(C)(C)NC(=O)CNC(=O)[C@H](NC(=O)C(C)(C)NC(=O)[C@@H](CC(C)C)NC(=O)CNC(=O)OC(C)(C)C)C(C)C)C(C)C)C(C)C)C(=O)NC(C)(C)C(=O)N[C@@H](C(=O)N[C@@H](C(=O)NC(C)(C)C(=O)N[C@@H](C(=O)N[C@@H](C(=O)NC(C)(C)C(=O)OC)[C@H](C)CC)C(C)C)C(C)C)[C@H](C)OCc1ccccc1`, for which the IC50 came to 26 nM.

On to `CC[C@H](C)[C@H](NC(=O)[C@@H](NC(=O)[C@@H](NC(=O)C(C)(C)NC(=O)CNC(=O)[C@@H](NC(=O)OC(C)(C)C)C(C)C)C(C)C)C(C)C)C(=O)NC(C)(C)C(=O)N[C@H](C(=O)N[C@H](C(=O)NC(C)(C)C(=O)N[C@H](C(=O)N[C@H](C(=O)NC(C)(C)C(=O)OC)[C@@H](C)CC)C(C)C)C(C)C)[C@@H](C)OCc1ccccc1`, for which the IC50 was 780 nM.

`CC[C@H](C)[C@H](NC(=O)[C@@H](NC(=O)[C@@H](NC(=O)OC(C)(C)C)C(C)C)C(C)C)C(=O)NC(C)(C)C(=O)N[C@H](C(=O)N[C@H](C(=O)NC(C)(C)C(=O)N[C@H](C(=O)N[C@H](C(=O)NC(C)(C)C(=O)OC)[C@@H](C)CC)C(C)C)C(C)C)[C@@H](C)OCc1ccccc1`: the half-maximal inhibitory concentration (IC50) is 10000 nM.

Take `CC[C@@H](C)[C@@H](NC(=O)[C@H](NC(=O)[C@H](NC(=O)C(C)(C)NC(=O)CNC(=O)[C@H](NC(=O)OC(C)(C)C)C(C)C)C(C)C)C(C)C)C(=O)NC(C)(C)C(=O)N[C@@H](C(=O)N[C@@H](C(=O)NC(C)(C)C(=O)OC)C(C)C)[C@H](C)OCc1ccccc1`: the IC50 amounted to 90 nM.

On to `CC[C@@H](C)[C@@H](NC(=O)[C@H](NC(=O)[C@H](NC(=O)OC(C)(C)C)C(C)C)C(C)C)C(=O)NC(C)(C)C(=O)N[C@@H](C(=O)N[C@@H](C(=O)NC(C)(C)C(=O)N[C@@H](C(=O)N[C@@H](C(=O)NC(C)(C)C(=O)OC)[C@H](C)CC)C(C)C)C(C)C)[C@H](C)OCc1ccccc1`, for which the IC50 worked out at 25 nM.

Take `CC[C@H](C)[C@H](NC(=O)[C@@H](NC(=O)[C@@H](NC(=O)C(C)(C)NC(=O)CNC(=O)[C@@H](NC(=O)C(C)(C)NC(=O)OC(C)(C)C)C(C)C)C(C)C)C(C)C)C(=O)NC(C)(C)C(=O)N[C@H](C(=O)N[C@H](C(=O)NC(C)(C)C(=O)N[C@H](C(=O)N[C@H](C(=O)NC(C)(C)C(=O)OC)[C@@H](C)CC)C(C)C)C(C)C)[C@@H](C)OCc1ccccc1`: the IC50 came to 910 nM.

For `CC[C@@H](C)[C@@H](NC(=O)[C@H](NC(=O)[C@H](NC(=O)C(C)(C)NC(=O)CNC(=O)[C@H](NC(=O)C(C)(C)NC(=O)[C@@H](CC(C)C)NC(=O)OC(C)(C)C)C(C)C)C(C)C)C(C)C)C(=O)NC(C)(C)C(=O)N[C@@H](C(=O)N[C@@H](C(=O)NC(C)(C)C(=O)N[C@@H](C(=O)N[C@@H](C(=O)NC(C)(C)C(=O)OC)[C@H](C)CC)C(C)C)C(C)C)[C@H](C)OCc1ccccc1`, the IC50 was found to be 16 nM.

For the molecule `CC[C@@H](C)[C@@H](NC(=O)[C@H](NC(=O)[C@H](NC(=O)C(C)(C)NC(=O)OC(C)(C)C)C(C)C)C(C)C)C(=O)NC(C)(C)C(=O)N[C@@H](C(=O)N[C@@H](C(=O)NC(C)(C)C(=O)N[C@@H](C(=O)N[C@@H](C(=O)NC(C)(C)C(=O)OC)[C@H](C)CC)C(C)C)C(C)C)[C@H](C)OCc1ccccc1` (single isomer, unassigned), the IC50 came to 28 nM.

The target in the next assay is Gamma-secretase. Nature of the assay: Inhibitory activity against Gamma-secretase from APP-transfected CHO cells. Format: functional, cell-based, Homo sapiens.
For the molecule `CC[C@@H](C)[C@@H](NC(=O)[C@H](NC(=O)[C@H](NC(=O)C(C)(C)NC(=O)CNC(=O)[C@H](NC(=O)OC(C)(C)C)C(C)C)C(C)C)C(C)C)C(=O)NC(C)(C)C(=O)N[C@@H](C(=O)N[C@@H](C(=O)NC(C)(C)C(=O)N[C@@H](C(=O)N[C@@H](C(=O)NC(C)(C)C(=O)OC)[C@H](C)CC)C(C)C)C(C)C)[C@H](C)OCc1ccccc1`, it took 9 nM to reach half-maximal inhibition (IC50).

The IC50 is the concentration that inhibits the measured activity by half.
